Results published in publication PMC5218480 (PLoS ONE, 2017).

System: MV-4-11 cells
Experiment: Gene expression microarray analysis (Affymetrix PrimeView) and GSEA
Assay type: cell-based, human
Parameters: RFU PODN (11730768_x_at) / Fold change /veh PODN (11730768_x_at) / RFU LINC00158 (11744669_a_at) / Fold change /veh LINC00158 (11744669_a_at) / RFU DUSP10 (11751237_a_at) / Fold change /veh DUSP10 (11751237_a_at) / RFU ID3 (11757404_x_at) / Fold change /veh ID3 (11757404_x_at) / RFU PLEKHG5 (11737974_s_at) / Fold change /veh PLEKHG5 (11737974_s_at) / RFU LRRC4B (11730491_at) / Fold change /veh LRRC4B (11730491_at) / RFU GIMAP4 (11747438_a_at) / Fold change /veh GIMAP4 (11747438_a_at) / RFU KRT8 (11758183_x_at) / Fold change /veh KRT8 (11758183_x_at) / RFU CNN1 (11734310_a_at) / Fold change /veh CNN1 (11734310_a_at) / RFU VPS37D (11726825_at) / Fold change /veh VPS37D (11726825_at) / RFU C10orf10 (11716522_x_at) / Fold change /veh C10orf10 (11716522_x_at) / RFU KIR2DL2 /// KIR2DL4 /// KIR2DL5A /// KIR2DL5B /// KIR2DS1 /// KIR2DS2 /// KIR2DS3 /// KIR2DS4 /// KIR3DL3 /// KIR3DL3 /// KIR3DS1 (11738374_at) / Fold change /veh KIR2DL2 /// KIR2DL4 /// KIR2DL5A /// KIR2DL5B /// KIR2DS1 /// KIR2DS2 /// KIR2DS3 /// KIR2DS4 /// KIR3DL3 /// KIR3DL3 /// KIR3DS1 (11738374_at) / RFU C1QL1 (11718748_at) / Fold change /veh C1QL1 (11718748_at) / RFU TMPRSS4 (11747572_a_at) / Fold change /veh TMPRSS4 (11747572_a_at) / RFU HAMP (11756126_x_at) / Fold change /veh HAMP (11756126_x_at) / RFU RNFT2 (11725882_a_at) / Fold change /veh RNFT2 (11725882_a_at) / RFU NR4A2 (11747474_a_at) / Fold change /veh NR4A2 (11747474_a_at) / RFU ABCC12 (11746883_a_at) / Fold change /veh ABCC12 (11746883_a_at) / RFU TMEM136 (11760407_x_at) / Fold change /veh TMEM136 (11760407_x_at) / RFU CLDN22 /// WWC2 (11732394_at) / Fold change /veh CLDN22 /// WWC2 (11732394_at) / RFU HLA-DPB1 (11760878_x_at) / Fold change /veh HLA-DPB1 (11760878_x_at) / RFU SPINT1 (11716480_a_at) / Fold change /veh SPINT1 (11716480_a_at) / RFU GAP43 (11754022_s_at) / Fold change /veh GAP43 (11754022_s_at) / RFU A4GNT (11735810_at) / Fold change /veh A4GNT (11735810_at) / RFU PRB3 (11715151_x_at) / Fold change /veh PRB3 (11715151_x_at) / RFU TUBB4B (11761932_at) / Fold change /veh TUBB4B (11761932_at) / RFU CAPN14 (11732068_a_at) / Fold change /veh CAPN14 (11732068_a_at) / RFU TMCC2 (11721928_a_at) / Fold change /veh TMCC2 (11721928_a_at) / RFU IRGQ (11745062_a_at) / Fold change /veh IRGQ (11745062_a_at) / RFU FAM174B (11720279_a_at) / Fold change /veh FAM174B (11720279_a_at) / RFU TMPRSS4 (11748680_a_at) / Fold change /veh TMPRSS4 (11748680_a_at) / RFU FAM212B (11763350_a_at) / Fold change /veh FAM212B (11763350_a_at) / RFU PLEKHG5 (11743358_a_at) / Fold change /veh PLEKHG5 (11743358_a_at) / RFU ZSCAN30 (11745921_a_at) / Fold change /veh ZSCAN30 (11745921_a_at) / RFU CMKLR1 (11741424_a_at) / Fold change /veh CMKLR1 (11741424_a_at) / RFU LOC101060620 /// MAPK8IP1 (11723275_at) / Fold change /veh LOC101060620 /// MAPK8IP1 (11723275_at) / RFU SPTSSB (11747773_x_at) / Fold change /veh SPTSSB (11747773_x_at) / RFU PRSS12 (11739890_at) / Fold change /veh PRSS12 (11739890_at) / RFU BIN1 (11741810_x_at) / Fold change /veh BIN1 (11741810_x_at) / RFU WNT11 (11732464_a_at) / Fold change /veh WNT11 (11732464_a_at) / RFU C10orf10 (11716521_a_at) / Fold change /veh C10orf10 (11716521_a_at) / RFU C5orf56 (11738089_at) / Fold change /veh C5orf56 (11738089_at) / RFU CYB561 (11721691_x_at) / Fold change /veh CYB561 (11721691_x_at) / RFU ANKRD19P (11752326_a_at) / Fold change /veh ANKRD19P (11752326_a_at) / RFU OR2T12 /// OR2T33 /// OR2T8 (11738714_s_at) / Fold change /veh OR2T12 /// OR2T33 /// OR2T8 (11738714_s_at) / RFU VCAN (11748164_a_at) / Fold change /veh VCAN (11748164_a_at) / RFU JSRP1 (11732532_at) / Fold change /veh JSRP1 (11732532_at) / RFU KRTAP10-11 (11738290_x_at) / Fold change /veh KRTAP10-11 (11738290_x_at) / RFU MYO3A (11730013_a_at) / Fold change /veh MYO3A (11730013_a_at) / RFU EBF3 (11725865_a_at) / Fold change /veh EBF3 (11725865_a_at) / RFU CAMK2N1 (11719241_x_at) / Fold change /veh CAMK2N1 (11719241_x_at) / RFU C5orf56 (11738088_a_at) / Fold change /veh C5orf56 (11738088_a_at) / RFU OLFML3 (11715873_a_at) / Fold change /veh OLFML3 (11715873_a_at) / RFU LOC100653217 /// NTM (11731650_a_at) / Fold change /veh LOC100653217 /// NTM (11731650_a_at) / RFU MAPK11 (11762145_a_at) / Fold change /veh MAPK11 (11762145_a_at) / RFU FIZ1 (11724087_x_at) / Fold change /veh FIZ1 (11724087_x_at) / RFU OASL (11726364_x_at) / Fold change /veh OASL (11726364_x_at) / RFU SOX15 (11748057_x_at) / Fold change /veh SOX15 (11748057_x_at) / RFU CD79A (11719716_a_at) / Fold change /veh CD79A (11719716_a_at) / RFU HIST1H1D (11736915_at) / Fold change /veh HIST1H1D (11736915_at) / RFU CASKIN2 (11723855_a_at) / Fold change /veh CASKIN2 (11723855_a_at) / RFU LOC730098 (11760151_x_at) / Fold change /veh LOC730098 (11760151_x_at) / RFU OR4N2 (11742367_at) / Fold change /veh OR4N2 (11742367_at) / RFU PRRT2 (11749266_a_at) / Fold change /veh PRRT2 (11749266_a_at) / RFU SNX32 (11753110_a_at) / Fold change /veh SNX32 (11753110_a_at) / RFU CDHR5 (11726645_a_at) / Fold change /veh CDHR5 (11726645_a_at) / RFU RCAN1 (11760418_a_at) / Fold change /veh RCAN1 (11760418_a_at) / RFU FAM167A (11723789_a_at) / Fold change /veh FAM167A (11723789_a_at) / RFU FAM26E (11764081_at) / Fold change /veh FAM26E (11764081_at) / RFU ISYNA1 (11749810_s_at) / Fold change /veh ISYNA1 (11749810_s_at) / RFU ACY1 (11761880_at) / Fold change /veh ACY1 (11761880_at) / RFU 11764098_at / Fold change /veh 11764098_at / RFU SAMD14 (11745864_x_at) / Fold change /veh SAMD14 (11745864_x_at) / RFU NPB (11741838_a_at) / Fold change /veh NPB (11741838_a_at) / RFU TMPRSS6 (11731388_a_at) / Fold change /veh TMPRSS6 (11731388_a_at) / RFU KRTAP10-2 (11738614_at) / Fold change /veh KRTAP10-2 (11738614_at) / RFU ARHGAP8 /// PRR5-ARHGAP8 (11727945_x_at) / Fold change /veh ARHGAP8 /// PRR5-ARHGAP8 (11727945_x_at) / RFU KRTAP5-7 /// NADSYN1 (11734609_at) / Fold change /veh KRTAP5-7 /// NADSYN1 (11734609_at) / RFU RASL12 (11751679_a_at) / Fold change /veh RASL12 (11751679_a_at) / RFU CDKN2B (11736163_a_at) / Fold change /veh CDKN2B (11736163_a_at) / RFU PRF1 (11729649_at) / Fold change /veh PRF1 (11729649_at) / RFU, ZNF638 /// ZNF638-IT1 / Fold change vs veh, ZNF638 /// ZNF638-IT1 / RFU, PANK3 / Fold change vs veh, PANK3 / RFU, SH3YL1 / Fold change vs veh, SH3YL1 / RFU, ZEB2 / Fold change vs veh, ZEB2 / RFU, NRIP1 / Fold change vs veh, NRIP1 / RFU, PTTG1IP / Fold change vs veh, PTTG1IP / RFU, CAPN2 / Fold change vs veh, CAPN2 / RFU, MED14 / Fold change vs veh, MED14 / RFU, SNORA58 / Fold change vs veh, SNORA58 / RFU, C1orf63 / Fold change vs veh, C1orf63 / RFU, LRRFIP1 / Fold change vs veh, LRRFIP1 / RFU, NDUFAF7 / Fold change vs veh, NDUFAF7 / RFU, SLC12A2 / Fold change vs veh, SLC12A2 / RFU, IBTK / Fold change vs veh, IBTK / RFU, ESF1 / Fold change vs veh, ESF1 / Fold change vs veh, TMEM50B / RFU, TAOK1 / Fold change vs veh, TAOK1 / RFU, ACBD3 / Fold change vs veh, ACBD3 / RFU, TMA16 / Fold change vs veh, TMA16 / RFU, RWDD3 / Fold change vs veh, RWDD3 / RFU, BCAT1 / Fold change vs veh, BCAT1 / RFU, EDEM3 / Fold change vs veh, EDEM3 / RFU, TMEM33 / Fold change vs veh, TMEM33 / RFU, WDR75 / Fold change vs veh, WDR75 / RFU, AHCTF1 / Fold change vs veh, AHCTF1 / RFU, TFRC / Fold change vs veh, TFRC / RFU, ZDHHC17 / Fold change vs veh, ZDHHC17 / RFU, NOM1 / Fold change vs veh, NOM1 / RFU, ARL8B / Fold change vs veh, ARL8B / RFU, ZBTB11 / Fold change vs veh, ZBTB11 / RFU, TAMM41 / Fold change vs veh, TAMM41 / RFU, KIAA1704 /// LOC100996395 / Fold change vs veh, KIAA1704 /// LOC100996395 / RFU, ING1 / Fold change vs veh, ING1 / RFU, TRMT61B / Fold change vs veh, TRMT61B / RFU, FUBP3 / Fold change vs veh, FUBP3 / RFU, TP53 / Fold change vs veh, TP53 / RFU, TNKS2 / Fold change vs veh, TNKS2 / RFU, ZFP14 / Fold change vs veh, ZFP14 / RFU, ACTR2 / Fold change vs veh, ACTR2 / RFU, PPP3R1 / Fold change vs veh, PPP3R1 / RFU, PIK3R1 / Fold change vs veh, PIK3R1 / RFU, HNRNPA1 / Fold change vs veh, HNRNPA1 / RFU, RNF170 / Fold change vs veh, RNF170 / RFU, ZNF28 / Fold change vs veh, ZNF28 / RFU, RNGTT / Fold change vs veh, RNGTT / RFU, OGT / Fold change vs veh, OGT / RFU, BRD1 / Fold change vs veh, BRD1 / RFU, MARS / Fold change vs veh, MARS / RFU, ZNF655 / Fold change vs veh, ZNF655 / RFU, FAHD1 / Fold change vs veh, FAHD1 / RFU, BDP1 / Fold change vs veh, BDP1 / RFU, LRRCC1 / Fold change vs veh, LRRCC1 / RFU, ARID1A / Fold change vs veh, ARID1A / RFU, ZNF146 / Fold change vs veh, ZNF146 / RFU, ZNF330 / Fold change vs veh, ZNF330 / RFU, GPN3 / Fold change vs veh, GPN3 / RFU, C9orf123 / Fold change vs veh, C9orf123 / RFU, N4BP2L2 / Fold change vs veh, N4BP2L2 / RFU, ARFIP1 / Fold change vs veh, ARFIP1 / RFU, FAM179B / Fold change vs veh, FAM179B / RFU, BCL10 / Fold change vs veh, BCL10 / RFU, UHRF1BP1L / Fold change vs veh, UHRF1BP1L / RFU, BET1 / Fold change vs veh, BET1 / RFU, CNOT2 / Fold change vs veh, CNOT2 / RFU, ZNF268 / Fold change vs veh, ZNF268 / Fold change vs veh, ZNF507 / RFU, DGCR2 / Fold change vs veh, DGCR2 / RFU, WDSUB1 / Fold change vs veh, WDSUB1 / Fold change vs veh, HSP90B1 /// MIR3652 / RFU, ADSS / Fold change vs veh, ADSS / RFU, GK / Fold change vs veh, GK / RFU, ZNF148 / Fold change vs veh, ZNF148 / RFU, TAF9 / Fold change vs veh, TAF9 / RFU, SLC1A5 / Fold change vs veh, SLC1A5 / RFU, SLMO2 / Fold change vs veh, SLMO2 / RFU, ABCC4 / Fold change vs veh, ABCC4 / RFU, LOC101060439 /// RAP1B / Fold change vs veh, LOC101060439 /// RAP1B / RFU, RFX7 / Fold change vs veh, RFX7 / RFU, GTPBP10 / Fold change vs veh, GTPBP10 / RFU, CNEP1R1 / Fold change vs veh, CNEP1R1 / RFU, BIVM-ERCC5 /// ERCC5 / Fold change vs veh, BIVM-ERCC5 /// ERCC5 / RFU, ILF3 / Fold change vs veh, ILF3 / RFU 11762660_at / Fold change /veh 11762660_at / RFU VCAN (11757783_s_at) / Fold change /veh VCAN (11757783_s_at) / RFU DDX43 (11728927_at) / Fold change /veh DDX43 (11728927_at) / RFU KRT8 (11758188_x_at) / Fold change /veh KRT8 (11758188_x_at) / RFU NKD1 (11759106_at) / Fold change /veh NKD1 (11759106_at) / RFU SRD5A1 (11742802_a_at) / Fold change /veh SRD5A1 (11742802_a_at) / RFU TPSAB1 /// TPSB2 (11721975_s_at) / Fold change /veh TPSAB1 /// TPSB2 (11721975_s_at) / RFU GSTM3 (11746129_a_at) / Fold change /veh GSTM3 (11746129_a_at) / RFU IL23R (11737362_x_at) / Fold change /veh IL23R (11737362_x_at) / RFU TMEM51 (11727254_a_at) / Fold change /veh TMEM51 (11727254_a_at) / RFU PIWIL2 (11732686_x_at) / Fold change /veh PIWIL2 (11732686_x_at) / RFU ORM1 (11744905_x_at) / Fold change /veh ORM1 (11744905_x_at) / RFU CCDC152 (11743942_at) / Fold change /veh CCDC152 (11743942_at) / RFU ECM1 (11717891_a_at) / Fold change /veh ECM1 (11717891_a_at) / RFU IL23R (11748794_a_at) / Fold change /veh IL23R (11748794_a_at) / RFU TNFAIP8L3 (11732012_x_at) / Fold change /veh TNFAIP8L3 (11732012_x_at) / RFU MBOAT4 (11741988_at) / Fold change /veh MBOAT4 (11741988_at) / RFU 11764193_at / Fold change /veh 11764193_at / RFU TMEM53 (11763286_at) / Fold change /veh TMEM53 (11763286_at) / RFU MAGEB2 (11727129_at) / Fold change /veh MAGEB2 (11727129_at) / RFU TMEM200A (11744735_a_at) / Fold change /veh TMEM200A (11744735_a_at) / RFU CCDC152 (11751479_a_at) / Fold change /veh CCDC152 (11751479_a_at) / RFU FAM211A (11726209_a_at) / Fold change /veh FAM211A (11726209_a_at) / RFU RGS16 (11746705_a_at) / Fold change /veh RGS16 (11746705_a_at) / RFU VCAN (11755009_s_at) / Fold change /veh VCAN (11755009_s_at) / RFU RHOB (11743442_s_at) / Fold change /veh RHOB (11743442_s_at) / RFU RGS16 (11720943_a_at) / Fold change /veh RGS16 (11720943_a_at) / RFU RGS16 (11720944_at) / Fold change /veh RGS16 (11720944_at) / RFU, VPS4B / Fold change vs veh, VPS4B / RFU, CREB1 / Fold change vs veh, CREB1 / RFU, DNAJC13 / Fold change vs veh, DNAJC13 / RFU, GNAQ / Fold change vs veh, GNAQ / RFU, CDK5R1 / Fold change vs veh, CDK5R1 / RFU, ZRANB3 / Fold change vs veh, ZRANB3 / RFU, CUL4A / Fold change vs veh, CUL4A / RFU, CCNY / Fold change vs veh, CCNY / RFU, UFL1 / Fold change vs veh, UFL1 / RFU, COG3 / Fold change vs veh, COG3 / RFU, DIAPH2 / Fold change vs veh, DIAPH2 / RFU, SKA2 / Fold change vs veh, SKA2 / RFU, AFF3 / Fold change vs veh, AFF3 / RFU, LMF1 / Fold change vs veh, LMF1 / RFU, IPO11 / Fold change vs veh, IPO11 / RFU, DFFB / Fold change vs veh, DFFB / RFU, FOXP1 / Fold change vs veh, FOXP1 / RFU, CARD8 / Fold change vs veh, CARD8 / RFU, STRN3 / Fold change vs veh, STRN3 / RFU, ADK / Fold change vs veh, ADK / RFU, RASSF2 / Fold change vs veh, RASSF2 / RFU, WIPF1 / Fold change vs veh, WIPF1 / RFU, LARP1B / Fold change vs veh, LARP1B / RFU, RASA1 / Fold change vs veh, RASA1 / RFU, RB1 / Fold change vs veh, RB1 / RFU, PPFIA1 / Fold change vs veh, PPFIA1 / RFU, MAT2A / Fold change vs veh, MAT2A / RFU, CCT5 / Fold change vs veh, CCT5 / RFU, WDR92 / Fold change vs veh, WDR92 / RFU, CUX1 / Fold change vs veh, CUX1 / RFU, TTC7A / Fold change vs veh, TTC7A / RFU, TMEM135 / Fold change vs veh, TMEM135 / RFU, DEPTOR / Fold change vs veh, DEPTOR / RFU, CPM / Fold change vs veh, CPM / RFU, DNAJB6 / Fold change vs veh, DNAJB6 / RFU, CACNA2D3 / Fold change vs veh, CACNA2D3 / RFU, DTX4 / Fold change vs veh, DTX4 / RFU, TFCP2 / Fold change vs veh, TFCP2 / RFU, GMCL1 /// GMCL1P1 / Fold change vs veh, GMCL1 /// GMCL1P1 / RFU, AEBP2 / Fold change vs veh, AEBP2 / RFU, SNHG1 /// SNORD22 /// SNORD25 /// SNORD26 /// SNORD27 /// SNORD28 /// SNORD29 /// SNORD31 / Fold change vs veh, SNHG1 /// SNORD22 /// SNORD25 /// SNORD26 /// SNORD27 /// SNORD28 /// SNORD29 /// SNORD31 / Fold change (Aza/veh), C12orf56 (ProbeSet 11735607_a_at) / Fold change (ACY-1035/veh), C12orf56 (ProbeSet 11735607_a_at) / Fold change (Aza/veh), FGFR1OP (ProbeSet 11751329_s_at) / Fold change (ACY-1035/veh), FGFR1OP (ProbeSet 11751329_s_at) / Fold change (Aza/veh), VPS36 (ProbeSet 11739960_a_at) / Fold change (ACY-1035/veh), VPS36 (ProbeSet 11739960_a_at) / RFU SYPL1 (11715823_x_at) / Fold change /veh SYPL1 (11715823_x_at) / RFU IGFBP7 (11715501_s_at) / Fold change /veh IGFBP7 (11715501_s_at) / RFU REEP3 (11722064_at) / Fold change /veh REEP3 (11722064_at) / RFU IGLL1 (11728026_x_at) / Fold change /veh IGLL1 (11728026_x_at): dose or concentration left out as unconfirmed
Settings: ProbeSet 11727641_at; LIST B

## Nc1ccc(-c2cccs2)cc1NC(=O)c1ccc2c(c1)cc(C1CC1)n2CCN1CCOCC1 [ACY-1035]
  Fold change vs veh, NOM1: 0.95
